In ChEMBL document CHEMBL1909046, “DrugMatrix in vitro pharmacology data”:

Key:
[1] = target: T1, Type-2 angiotensin II receptor (Homo sapiens, UniProt P50052); format: cell-based; settings: cho-k1; further: in other assays of this panel Not Active means under 50% inhibition at 10 µM
T1 sequence (P50052 whole entry): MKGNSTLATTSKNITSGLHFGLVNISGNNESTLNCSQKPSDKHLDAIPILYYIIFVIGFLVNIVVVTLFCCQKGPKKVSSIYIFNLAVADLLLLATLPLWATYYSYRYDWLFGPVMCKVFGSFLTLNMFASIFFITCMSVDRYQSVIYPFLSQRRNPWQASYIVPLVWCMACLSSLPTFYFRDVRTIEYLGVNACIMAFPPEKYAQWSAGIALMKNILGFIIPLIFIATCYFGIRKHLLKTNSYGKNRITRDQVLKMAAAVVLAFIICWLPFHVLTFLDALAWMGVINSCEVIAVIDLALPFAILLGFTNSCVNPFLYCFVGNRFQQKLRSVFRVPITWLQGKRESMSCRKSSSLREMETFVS

[2] = target: Cytochrome P450 2E1 (Homo sapiens, UniProt P05181); settings: bti-tn-5b1-4; further: in other assays of this panel Not Active means under 50% inhibition at 10 µM
[3] = DRUGMATRIX: Leukotriene, BLT (LTB4) radioligand binding (ligand: [3H]LTB4); format: cell membranes, Membrane; settings: u-937; Not Active = under 50% inhibition at 10 µM
[4] = target: Melanocortin receptor 4 (Homo sapiens, UniProt P32245); format: cell membranes, Membrane; settings: hek293; further: in other assays of this panel Not Active means under 50% inhibition at 10 µM
[5] = target: Cannabinoid receptor 1 (Homo sapiens, UniProt P21554); format: cell membranes, Membrane; settings: chem-1; further: in other assays of this panel Not Active means under 50% inhibition at 10 µM
[6] = target: T2, Nitric oxide synthase, inducible (Mus musculus, UniProt P29477); design: species or system Escherichia coli
T2 sequence (P29477 whole entry): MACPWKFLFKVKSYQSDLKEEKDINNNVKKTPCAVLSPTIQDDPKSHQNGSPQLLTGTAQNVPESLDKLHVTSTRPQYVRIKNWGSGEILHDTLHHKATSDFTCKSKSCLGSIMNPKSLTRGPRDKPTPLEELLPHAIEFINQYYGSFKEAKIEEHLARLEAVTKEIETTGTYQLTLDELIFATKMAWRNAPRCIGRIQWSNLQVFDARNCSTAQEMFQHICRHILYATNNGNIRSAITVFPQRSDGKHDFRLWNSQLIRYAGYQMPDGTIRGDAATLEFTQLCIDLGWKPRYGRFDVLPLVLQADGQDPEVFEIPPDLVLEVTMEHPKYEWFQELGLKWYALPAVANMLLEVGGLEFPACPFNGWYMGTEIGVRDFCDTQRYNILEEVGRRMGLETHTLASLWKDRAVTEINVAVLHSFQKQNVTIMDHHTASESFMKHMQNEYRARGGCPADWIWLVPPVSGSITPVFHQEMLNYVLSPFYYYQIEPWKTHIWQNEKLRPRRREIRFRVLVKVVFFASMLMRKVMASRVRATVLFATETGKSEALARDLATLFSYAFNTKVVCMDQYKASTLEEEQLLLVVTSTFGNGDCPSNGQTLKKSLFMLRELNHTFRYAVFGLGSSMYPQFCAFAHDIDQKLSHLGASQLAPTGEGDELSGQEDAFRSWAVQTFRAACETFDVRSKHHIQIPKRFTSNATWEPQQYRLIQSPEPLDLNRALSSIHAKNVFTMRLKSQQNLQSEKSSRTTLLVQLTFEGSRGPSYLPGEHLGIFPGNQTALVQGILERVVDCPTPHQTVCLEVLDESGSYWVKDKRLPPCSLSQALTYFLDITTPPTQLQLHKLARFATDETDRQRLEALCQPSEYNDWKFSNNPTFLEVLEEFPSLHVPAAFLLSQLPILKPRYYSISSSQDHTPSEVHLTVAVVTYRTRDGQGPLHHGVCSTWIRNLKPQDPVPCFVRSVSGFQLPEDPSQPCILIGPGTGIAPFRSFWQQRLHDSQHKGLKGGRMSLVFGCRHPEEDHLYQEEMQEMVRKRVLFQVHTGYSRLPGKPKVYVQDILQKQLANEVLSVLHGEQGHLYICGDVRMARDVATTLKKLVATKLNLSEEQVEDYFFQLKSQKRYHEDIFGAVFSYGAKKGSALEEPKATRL

[7] = target: Tyrosine-protein kinase Lck (Homo sapiens, UniProt P06239); assay: DRUGMATRIX: Protein Tyrosine Kinase, LCK enzyme inhibition (substrate: Poly(Glu:Tyr)); format: cell-based, Insect cells; settings: insect cells; Not Active = under 50% inhibition at 10 µM
[8] = target: Glycine receptor (Rattus norvegicus, UniProt P22771+P24524+P07727+P20781); format: cell membranes, Wistar, Spinal cord, Membrane; further: in other assays of this panel Not Active means under 50% inhibition at 10 µM
[9] = target: D(3) dopamine receptor (Homo sapiens, UniProt P35462); assay: DRUGMATRIX: Dopamine D3 radioligand binding (ligand: [3H] Spiperone); format: cell membranes, CHO, Membrane; settings: cho
[10] = DRUGMATRIX: Calcium Channel Type L, Dihydropyridine radioligand binding (ligand: [3H] Nitrendipine); format: cell membranes, Rattus norvegicus, Wistar, Cerebral cortex, Membrane; settings: Not Active = under 50% inhibition at 10 µM
[11] = target: Mitogen-activated protein kinase 14 (Homo sapiens, UniProt Q16539); design: species or system Escherichia coli
[12] = target: T3, Polyunsaturated fatty acid lipoxygenase ALOX15 (Oryctolagus cuniculus, UniProt P12530); assay: biochemical; format: tissue-based, Reticulocytes; settings: reticulocytes
T3 sequence (P12530 whole entry): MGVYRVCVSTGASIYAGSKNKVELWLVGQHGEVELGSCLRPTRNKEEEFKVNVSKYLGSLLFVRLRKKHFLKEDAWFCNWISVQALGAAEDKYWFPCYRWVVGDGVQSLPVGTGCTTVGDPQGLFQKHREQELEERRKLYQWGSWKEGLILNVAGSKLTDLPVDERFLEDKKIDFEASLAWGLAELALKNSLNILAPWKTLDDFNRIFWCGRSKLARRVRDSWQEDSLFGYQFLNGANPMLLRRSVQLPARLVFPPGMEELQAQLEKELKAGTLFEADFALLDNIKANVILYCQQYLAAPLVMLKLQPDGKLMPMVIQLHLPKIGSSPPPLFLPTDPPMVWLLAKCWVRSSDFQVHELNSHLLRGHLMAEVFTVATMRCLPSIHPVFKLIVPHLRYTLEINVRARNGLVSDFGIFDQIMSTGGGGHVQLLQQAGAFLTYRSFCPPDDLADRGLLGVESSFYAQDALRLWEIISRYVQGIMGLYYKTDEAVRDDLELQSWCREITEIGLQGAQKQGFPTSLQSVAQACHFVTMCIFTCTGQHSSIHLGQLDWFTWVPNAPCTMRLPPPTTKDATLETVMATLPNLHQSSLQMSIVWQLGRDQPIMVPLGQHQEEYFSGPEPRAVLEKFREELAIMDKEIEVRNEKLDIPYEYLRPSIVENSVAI

Chain of Melanocortin receptor 4 (P32245 whole entry): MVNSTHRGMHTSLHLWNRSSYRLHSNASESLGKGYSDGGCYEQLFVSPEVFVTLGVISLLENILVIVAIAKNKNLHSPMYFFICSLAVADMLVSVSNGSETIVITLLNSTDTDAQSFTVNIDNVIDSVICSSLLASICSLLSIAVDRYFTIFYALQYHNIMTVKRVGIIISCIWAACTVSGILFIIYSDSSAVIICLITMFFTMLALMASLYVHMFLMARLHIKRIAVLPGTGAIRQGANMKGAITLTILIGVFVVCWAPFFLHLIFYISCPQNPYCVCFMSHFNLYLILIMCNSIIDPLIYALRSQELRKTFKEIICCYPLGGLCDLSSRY
Chain of Tyrosine-protein kinase Lck (P06239 whole entry): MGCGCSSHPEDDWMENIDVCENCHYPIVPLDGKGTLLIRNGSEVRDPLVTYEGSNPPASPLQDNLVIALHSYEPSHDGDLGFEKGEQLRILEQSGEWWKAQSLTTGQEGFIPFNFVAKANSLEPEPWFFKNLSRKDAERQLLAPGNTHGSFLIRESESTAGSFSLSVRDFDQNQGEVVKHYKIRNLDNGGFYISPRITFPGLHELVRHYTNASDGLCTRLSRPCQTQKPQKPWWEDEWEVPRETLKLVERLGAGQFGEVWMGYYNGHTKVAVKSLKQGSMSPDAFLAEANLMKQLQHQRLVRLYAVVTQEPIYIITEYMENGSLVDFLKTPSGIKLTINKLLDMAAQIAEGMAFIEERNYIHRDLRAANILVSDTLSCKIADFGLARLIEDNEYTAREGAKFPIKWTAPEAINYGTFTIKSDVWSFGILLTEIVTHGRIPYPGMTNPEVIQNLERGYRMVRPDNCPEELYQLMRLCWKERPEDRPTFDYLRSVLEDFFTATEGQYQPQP
Chain of Mitogen-activated protein kinase 14 (Q16539 whole entry): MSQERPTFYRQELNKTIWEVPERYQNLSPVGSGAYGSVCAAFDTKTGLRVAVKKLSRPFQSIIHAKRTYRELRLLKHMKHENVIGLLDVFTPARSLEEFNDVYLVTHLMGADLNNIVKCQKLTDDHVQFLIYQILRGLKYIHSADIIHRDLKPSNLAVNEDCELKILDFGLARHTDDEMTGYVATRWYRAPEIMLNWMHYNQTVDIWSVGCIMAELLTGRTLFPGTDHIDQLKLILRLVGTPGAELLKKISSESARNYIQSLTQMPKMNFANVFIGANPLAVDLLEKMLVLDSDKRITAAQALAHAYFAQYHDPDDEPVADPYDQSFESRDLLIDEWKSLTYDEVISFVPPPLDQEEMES
Chain of D(3) dopamine receptor (P35462 whole entry): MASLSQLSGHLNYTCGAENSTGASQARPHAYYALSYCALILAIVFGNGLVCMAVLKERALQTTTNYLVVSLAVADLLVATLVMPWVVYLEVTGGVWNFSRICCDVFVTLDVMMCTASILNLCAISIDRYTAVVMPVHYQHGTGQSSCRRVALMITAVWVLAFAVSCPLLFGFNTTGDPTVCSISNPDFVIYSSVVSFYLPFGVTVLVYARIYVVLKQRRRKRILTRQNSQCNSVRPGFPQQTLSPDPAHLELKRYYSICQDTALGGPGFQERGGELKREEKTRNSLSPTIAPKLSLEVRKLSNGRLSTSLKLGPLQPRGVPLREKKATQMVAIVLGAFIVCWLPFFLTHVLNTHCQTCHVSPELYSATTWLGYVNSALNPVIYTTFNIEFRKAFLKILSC
Chain of Cannabinoid receptor 1 (P21554 whole entry): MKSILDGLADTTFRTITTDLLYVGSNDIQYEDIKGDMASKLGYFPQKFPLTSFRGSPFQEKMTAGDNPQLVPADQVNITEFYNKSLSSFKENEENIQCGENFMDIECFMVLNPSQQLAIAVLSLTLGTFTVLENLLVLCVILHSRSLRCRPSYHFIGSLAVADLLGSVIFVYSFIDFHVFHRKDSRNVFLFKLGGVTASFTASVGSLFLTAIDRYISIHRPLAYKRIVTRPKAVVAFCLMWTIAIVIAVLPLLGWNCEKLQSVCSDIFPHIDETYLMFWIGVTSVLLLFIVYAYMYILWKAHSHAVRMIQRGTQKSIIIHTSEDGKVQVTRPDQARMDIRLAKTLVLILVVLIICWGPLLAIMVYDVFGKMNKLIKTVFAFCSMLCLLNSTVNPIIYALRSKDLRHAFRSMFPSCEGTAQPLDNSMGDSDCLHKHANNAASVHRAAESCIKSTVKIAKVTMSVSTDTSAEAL
Chain of Cytochrome P450 2E1 (P05181 whole entry): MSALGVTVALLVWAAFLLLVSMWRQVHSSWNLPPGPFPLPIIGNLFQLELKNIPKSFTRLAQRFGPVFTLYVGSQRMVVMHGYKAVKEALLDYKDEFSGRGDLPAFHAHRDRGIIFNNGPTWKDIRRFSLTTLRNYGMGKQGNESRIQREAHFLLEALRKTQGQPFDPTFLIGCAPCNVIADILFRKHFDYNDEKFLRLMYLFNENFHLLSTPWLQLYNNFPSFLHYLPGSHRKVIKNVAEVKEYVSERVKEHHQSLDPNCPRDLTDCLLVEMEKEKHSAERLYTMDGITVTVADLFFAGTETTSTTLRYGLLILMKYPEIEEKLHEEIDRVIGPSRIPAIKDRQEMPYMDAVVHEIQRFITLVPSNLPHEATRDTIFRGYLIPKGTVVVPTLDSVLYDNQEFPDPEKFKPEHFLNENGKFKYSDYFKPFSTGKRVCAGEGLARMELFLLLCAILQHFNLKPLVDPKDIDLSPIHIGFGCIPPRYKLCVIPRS

Brc1ccccc1 [BROMOBENZENE]
Not Active: IC50 [1] | IC50 [2] | Ki [2] | IC50 [3] | Ki [3] | IC50 [4] | IC50 [5] | IC50 [6] | IC50 [7] | IC50 [8] | IC50 [9] | IC50 [10] | Ki [10] | IC50 [11] | IC50 [12]

CCCCOC(=O)c1ccc(N)cc1 [BUTAMBEN]
Not Active: IC50 [1] | IC50 [2] | Ki [2] | IC50 [3] | Ki [3] | IC50 [4] | IC50 [5] | IC50 [6] | IC50 [7] | IC50 [8] | IC50 [9] | IC50 [10] | Ki [10] | IC50 [11] | IC50 [12]

CC[C@@]1(O)C(=O)OCc2c1cc1n(c2=O)Cc2cc3ccccc3nc2-1 [CAMPTOTHECIN]
Not Active: IC50 [1] | IC50 [2] | Ki [2] | IC50 [3] | Ki [3] | IC50 [4] | IC50 [5] | IC50 [6] | IC50 [7] | IC50 [8] | IC50 [9] | IC50 [10] | Ki [10] | IC50 [11] | IC50 [12]

COCc1c(C(C)C)nc(C(C)C)c(/C=C/[C@@H](O)C[C@@H](O)CC(=O)O)c1-c1ccc(F)cc1 [CERIVASTATIN]
Not Active: IC50 [1] | IC50 [2] | Ki [2] | IC50 [3] | Ki [3] | IC50 [4] | IC50 [5] | IC50 [6] | IC50 [7] | IC50 [8] | IC50 [9] | IC50 [10] | Ki [10] | IC50 [11] | IC50 [12]

CC(=O)O[C@]1(C(C)=O)CC[C@H]2[C@@H]3C=C(Cl)C4=CC(=O)CC[C@]4(C)[C@H]3CC[C@@]21C [CHLORMADINONE ACETATE]
Not Active: IC50 [1] | IC50 [2] | Ki [2] | IC50 [3] | Ki [3] | IC50 [4] | IC50 [5] | IC50 [6] | IC50 [7] | IC50 [8] | IC50 [9] | IC50 [10] | Ki [10] | IC50 [11] | IC50 [12]

O=C1CCc2cc(OCCCCc3nnnn3C3CCCCC3)ccc2N1 [CILOSTAZOL]
Not Active: IC50 [1] | IC50 [2] | Ki [2] | IC50 [3] | Ki [3] | IC50 [4] | IC50 [5] | IC50 [6] | IC50 [7] | IC50 [8] | IC50 [9] | IC50 [10] | Ki [10] | IC50 [11] | IC50 [12]

O=C(O)c1cn(C2CC2)c2cc(N3CCNCC3)c(F)cc2c1=O [CIPROFLOXACIN]
Not Active: IC50 [1] | IC50 [2] | Ki [2] | IC50 [3] | Ki [3] | IC50 [4] | IC50 [5] | IC50 [6] | IC50 [7] | IC50 [8] | IC50 [9] | IC50 [10] | Ki [10] | IC50 [11] | IC50 [12]

CN(C)CCCC1(c2ccc(F)cc2)OCc2cc(C#N)ccc21 (stereo not given) [CITALOPRAM]
Not Active: IC50 [1] | IC50 [2] | Ki [2] | IC50 [3] | Ki [3] | IC50 [4] | IC50 [5] | IC50 [6] | IC50 [7] | IC50 [8] | IC50 [9] | IC50 [10] | Ki [10] | IC50 [11] | IC50 [12]

COC(=O)[C@H](c1ccccc1Cl)N1CCc2sccc2C1 [CLOPIDOGREL]
Not Active: IC50 [1] | IC50 [2] | Ki [2] | IC50 [3] | Ki [3] | IC50 [4] | IC50 [5] | IC50 [6] | IC50 [7] | IC50 [8] | IC50 [9] | IC50 [10] | Ki [10] | IC50 [11] | IC50 [12]

C[C@]12CCC(=O)C=C1CC[C@@H]1[C@@H]2C(=O)C[C@@]2(C)[C@H]1CC[C@]2(O)C(=O)CO [CORTISONE]
Not Active: IC50 [1] | IC50 [2] | Ki [2] | IC50 [3] | Ki [3] | IC50 [4] | IC50 [5] | IC50 [6] | IC50 [7] | IC50 [8] | IC50 [9] | IC50 [10] | Ki [10] | IC50 [11] | IC50 [12]
